According to patent publication US20190054103A1, “METHOD OF TREATMENT OF TP53 WILD-TYPE TUMORS WITH 2',2'-DIFLUORO-5-AZA-2'-DEOXYCYTIDINE OR PRODRUGS THEREOF” (priority 2016, published 2019):
Like-named read-outs stand apart in the source and are kept apart here.

Legend:
NCI 60 Cell Line Panel = assay: NCI 60 Cell Line Panel, summary by TP53 status (2×2 contingency tables); format: cell-based, human
Excerpt: The NCI-60 Cell Line Panel was assembled by the National Cancer Institute as an in vitro anticancer drug screen. The panel comprises human cancer cell lines representing nine different tissues of origin: breast, colon, central nervous system, renal, lung, melanoma, ovarian, prostate, and hematogenous. […] See, e.g., Leroy et al. “Analysis of TP53 Mutation Status in Human Cancer Cell Lines: a Reassesment” Hum Mutat 2014 35(6): 756-765.

[1] = tested on: HL-60 (leukemia, TP null); conditions: HL-60 nude mice
HeLa cells = assay: Nucleotide concentrations in HeLa cell extracts by HPLC (RNR inhibition); format: cell-based; conditions: 50 μM, 16 h incubation
Excerpt: The more common approach is to synthesize a nucleoside diphosphate and then determine whether it inhibits RNR or p53R2. […] Nucleic Acids Research. […] The other approach is to expose cells in tissue culture to the drug and then attempt to determine whether deoxynucleotide synthesis is inhibited when compared to control cells. Measurement of deoxynucleotides may be done by radioimmunoassay or by HPLC. The disadvantage of a radioimmunoassay is that it can only measure a single deoxynucleotide triphosphate (dNTP) at a time and typically requires a tritiated nucleotide, but it is the preferred method for measuring dCTP [Piall E M, Aherne G W, Marks V. The quantitative determination of 2′-deoxycytidine-5′ triphosphate in cell extracts by radioimmunoassay. Anal Biochem. 1986; 154(1):276-281 incorporated herein by reference in its entirety]. On the other hand, HPLC can measure multiple nucleotides without requiring radiolabeling, but has been noted to quantitate poorly dC nucleotides, possibly as an artifact of an influx of dCTP from the medium [Bianchi V, Pontis E, Reichard P. Changes of deoxyribonucleoside triphosphate pools induced by hydroxyurea and their relation to DNA synthesis. J Biol Chem. 1986; 261(34): 16037-16042 incorporated herein by reference in its entirety]. This approach was used to determine RNR inhibition by NUC013.
Briefly, HeLa cells ([…]) were grown in the presence or absence of drug, in this case gemcitabine or NUC013. At the end of a 16 h incubation, the medium was aspirated, cells monolayers washed twice with PBS, and used for nucleotide extraction. The nucleotides were extracted from cell monolayers by the addition of ice-cold 80% acetonitrile (ACN) for 1 h. The extracts were centrifuged to remove cellular debris and loaded on a SAX column (100 mg, Supelco) pre-conditioned with methanol, water and ACN. Once the sample was completely effused, the cartridge was washed with 3 ml 80% ACN and 3 ml water and eluted with 1M KCl. The eluent was filtered through a 0.45 μm filter membrane (Roth) and analyzed by HPLC. Peak identification of the different nucleoside mono-, di-, and triphosphates, was made from their characteristic UV absorption spectra and retention times compared with those of a mixture of standards run immediately before cell extracts. The area of individual peaks was measured using ChemStation software (Agilent).

[2] = TP53 (WT) cell lines of NCI 60 cell panel
[3] = TP53 (null/mutant) cell lines of NCI 60 cell panel

Nc1ncn([C@@H]2O[C@H](CO)[C@@H](O)C2(F)F)c(=O)n1 [NUC013, 4-amino-1-((2R,4R,5R)-3,3-difluoro-4-hydroxy-5-(hydroxymethyl)tetrahydrofuran-2-yl)-1,3,5-triazin-2(1H)-one]
inhibition at 10 µM (NCI 60 Cell Line Panel; Homo sapiens, 60 cell, 10 μM, read-out: Inhibition of growth of hematogenous tumor cell lines): > 50% | Number of cell lines with >50% growth inhibition at 10 μM (NCI 60 Cell Line Panel; [2]): 11 | Number of cell lines with ≤50% growth inhibition at 10 μM (NCI 60 Cell Line Panel; [2]): 4 | Number of cell lines with >50% growth inhibition at 10 μM (NCI 60 Cell Line Panel; [3]): 13 | Number of cell lines with ≤50% growth inhibition at 10 μM (NCI 60 Cell Line Panel; [3]): 27 | animals removed from the study for death or moribund ([1]; 5.8 mg/kg): no animals removed from the study for death or moribund | tumor weights vs saline control ([1]; 5.8 mg/kg): not significantly different | hazard ratio (HR) vs saline control (death, ulcerated tumor or tumor >4 g) ([1]; 5.8 mg/kg (equimolar to decitabine 5 mg/kg)): 0.46 | hazard ratio (HR) vs saline control (death, ulcerated tumor or tumor >4 g) ([1]; 20 mg/kg): 0.26 | tumor volume vs saline control ([1]; 20 mg/kg, study days 18 through 28, FIG. 3A): significant decreases | ADP (HeLa cells): 13,845 | ATP (HeLa cells): 21,335 | CTP (HeLa cells): 1,279 | GTP (HeLa cells): 2,006 | UTP (HeLa cells): 4,070 | dATP, peak area, AU (HeLa cells): 10.2 AU | dGDP, peak area, AU (HeLa cells): 5.6 AU | dTDP, peak area, AU (HeLa cells): 18.65 AU | dUTP, peak area, AU (HeLa cells): 8.8 AU
